Results on 24 molecules are retold here after patent US9845292B2 (Max-Planck-Gesellschaft zur Förderung der Wissenschaften …, priority 2013, dated 2017).

Like-named read-outs stand apart in the source and are kept apart here.

One assay deals with T1, FKBP52 (Homo sapiens, UniProt Q02790).
T1 construct: Purified FK1-domains of FKBP51WT (4.5 nM) with F4 (3 nM), FKBP52WT (400 nM) with F2 (20 nM); implied by Ni-NTA purification) (N); made in house; host or cells: E. coli BL21(DE3)pLysS
T1 sequence (Q02790 50-138 limits assumed): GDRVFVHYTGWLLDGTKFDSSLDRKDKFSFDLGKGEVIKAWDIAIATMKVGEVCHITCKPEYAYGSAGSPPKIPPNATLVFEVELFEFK
Nature of the assay: Fluorescence polarization binding assay, FK1-domain of FKBP52WT with tracer F2 (selectivity FKBP51 vs. FKBP52). The note with it: selectivity factor over FKBP52. The method in brief:
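Compounds titrated against FK1 domain of FKBP52 WT with fluorescent tracer F2, in duplicate; competition curves fitted to four-parameter logistic for IC50. Ki derived from exact competitive-binding equation using tracer Kd; selectivity expressed as Ki(FKBP51)/Ki(FKBP52).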
On the technique in general: Polarisation of emitted light reports the rotation of a fluorescent probe.

Another assay has as its target T2, FKBP51 (Homo sapiens, UniProt Q13451).
T2 sequence (Q13451 42-130 limits assumed): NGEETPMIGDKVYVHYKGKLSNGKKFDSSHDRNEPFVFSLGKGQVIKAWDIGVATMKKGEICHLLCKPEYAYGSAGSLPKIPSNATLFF
As to the kind of experiment: Fluorescence polarization binding assay, FK1-domain of FKBP51WT with tracer F4. Further details: Purified FK1-domains of FKBP51WT (4.5 nM) with F4 (3 nM), FKBP52WT (400 nM) with F2 (20 nM); made in house; host or cells: E. coli BL21(DE3)pLysS. The note with it: read-out: Affinity(Ki) for FKBP51. The method, boiled down:
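Competitive fluorescence polarization with tracer F4 and FKBP51 FK1 domain (wild type), compounds titrated by serial dilution from DMSO stock, run in duplicate. IC50 from four-parameter logistic fit; inhibition constants from an exact competitive-binding equation using tracer and inhibitor Kd values.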

What is called Ki is the dissociation constant of the complex between target and ligand, obtained from inhibition or displacement. On to `COc1cc([C@@H](C(=O)N2CCCC[C@H]2C(=O)N[C@H](Cc2c[nH]cn2)C(N)=O)C2CCCCC2)cc(OC)c1OC` [Compound B34, (S)-N-((R)-1-amino-3-(1H-imidazol-4-yl)-1-oxopropan-2-yl)-1-((S)-2-cyclohexyl-2-(3,4,5-trimethoxyphenyl)acetyl)piperidine-2-carboxamide], for which the “Ki(FKBP51)/Ki(FKBP52)” value on FKBP52 (compounds B01-C25) was “++ (>50 ++)”. The Ki on FKBP51 (compounds B01-C25) lay in the range of 10 to 50 µM.

As for `COc1cc([C@@H](C(=O)N2CCCC[C@H]2C(=O)N[C@@H](Cc2c[nH]cn2)C(N)=O)C2CCCCC2)cc(OC)c1OC` [Compound B35, (S)-N-((S)-1-amino-3-(1H-imidazol-4-yl)-1-oxopropan-2-yl)-1-((S)-2-cyclohexyl-2-(3,4,5-trimethoxyphenyl)acetyl)piperidine-2-carboxamide], the “Ki(FKBP51)/Ki(FKBP52)” value at FKBP52 (compounds B01-C25) is on record as “+ (>5 +)”. The inhibition constant Ki at FKBP51 (compounds B01-C25) is 10 to 50 µM.

For `COC(=O)[C@@H]1CCCCN1C(=O)[C@H](c1cc(OC)c(OC)c(OC)c1)C1CCCCC1` [Compound C01, (S)-methyl 1-((S)-2-cyclohexyl-2-(3,4,5-trimethoxyphenyl)acetyl)piperidine-2-carboxylate], the “Ki(FKBP51)/Ki(FKBP52)” value on FKBP52 (compounds B01-C25) is on record as “++ (>50 ++)”. Besides, the inhibitory constant (Ki) on FKBP51 (compounds B01-C25) was 1 to 10 µM.

For the molecule `CCOC(=O)[C@@H]1CCCCN1C(=O)[C@H](c1cc(OC)c(OC)c(OC)c1)C1CCCCC1` [Compound C02, (S)-ethyl 1-((S)-2-cyclohexyl-2-(3,4,5-trimethoxyphenyl)acetyl)piperidine-2-carboxylate], on FKBP52 (compounds B01-C25), the “Ki(FKBP51)/Ki(FKBP52)” value was “++ (>50 ++)”. Also, the Ki at FKBP51 (compounds B01-C25) fell in the range of 1 to 10 µM.

Consider `CCCOC(=O)[C@@H]1CCCCN1C(=O)[C@H](c1cc(OC)c(OC)c(OC)c1)C1CCCCC1` [Compound C03, (S)-propyl 1-((S)-2-cyclohexyl-2-(3,4,5-trimethoxyphenyl)acetyl)piperidine-2-carboxylate], for which the “Ki(FKBP51)/Ki(FKBP52)” value on FKBP52 (compounds B01-C25) is listed as “+++ (>500 +++)”. Moreover, the Ki on FKBP51 (compounds B01-C25) lay within 1 to 10 µM.

Regarding `COc1cc([C@@H](C(=O)N2CCCC[C@H]2C(=O)OC(C)C)C2CCCCC2)cc(OC)c1OC` [Compound C04, (S)-isopropyl 1-((S)-2-cyclohexyl-2-(3,4,5-trimethoxyphenyl)acetyl)piperidine-2-carboxylate], the “Ki(FKBP51)/Ki(FKBP52)” value at FKBP52 (compounds B01-C25) is recorded as “+++ (>500 +++)”. Besides, the inhibitory constant (Ki) on FKBP51 (compounds B01-C25) lay in the range of 0.1 to 1 µM.

As to `CCNC(=O)[C@@H]1CCCCN1C(=O)[C@H](c1cc(OC)c(OC)c(OC)c1)C1CCCCC1` [Compound C05, (S)-1-((S)-2-cyclohexyl-2-(3,4,5-trimethoxyphenyl)acetyl)-N-ethylpiperidine-2-carboxamide], the “Ki(FKBP51)/Ki(FKBP52)” value at FKBP52 (compounds B01-C25) is on record as “++ (>50 ++)”. The Ki on FKBP51 (compounds B01-C25) lay within 10 to 50 µM.

For `COc1cc([C@@H](C(=O)N2CCCC[C@H]2C(=O)O)C2CCCCC2)cc(OC)c1OC` [Compound C06, (S)-1-((S)-2-cyclohexyl-2-(3,4,5-trimethoxyphenyl)acetyl)piperidine-2-carboxylic acid], the “Ki(FKBP51)/Ki(FKBP52)” value on FKBP52 (compounds B01-C25) is “+ (>5 +)”. Moreover, the inhibitory constant (Ki) on FKBP51 (compounds B01-C25) was in the range of 10 to 50 µM.

Regarding `CC[C@H](C)OC(=O)[C@@H]1CCCCN1C(=O)[C@H](c1cc(OC)c(OC)c(OC)c1)C1CCCCC1` [Compound C07, (S)-(S)-sec-butyl-1-((S)-2-cyclohexyl-2-(3,4,5-trimethoxyphenyl)acetyl) piperidine-2-carboxylate], at FKBP52 (compounds B01-C25), the “Ki(FKBP51)/Ki(FKBP52)” value is recorded as “++ (>50 ++)”. For the same molecule, on FKBP51 (compounds B01-C25), the Ki fell in the range of 10 to 50 µM.

Take `CCC(CC)OC(=O)[C@@H]1CCCCN1C(=O)[C@H](c1cc(OC)c(OC)c(OC)c1)C1CCCCC1` [Compound C09, (S)-pentan-3-yl-1-((S)-2-cyclohexyl-2-(3,4,5-trimethoxyphenyl)acetyl)piperidine-2-carboxylate]: the “Ki(FKBP51)/Ki(FKBP52)” value at FKBP52 (compounds B01-C25) was “++ (>50 ++)”. Also, at FKBP51 (compounds B01-C25), the Ki was in the range of 10 to 50 µM.

Take `COc1cc([C@@H](C(=O)N2CCCC[C@H]2C(=O)OC(C)(C)C)C2CCCCC2)cc(OC)c1OC` [Compound C10, (S)-tert-butyl-1-((S)-2-cyclohexyl-2-(3,4,5-trimethoxyphenyl)acetyl)piperidine-2-carboxylate]: on FKBP52 (compounds B01-C25), the “Ki(FKBP51)/Ki(FKBP52)” value is listed as “+++ (>500 +++)”. Also, the Ki at FKBP51 (compounds B01-C25) lay within 1 to 10 µM.

In the case of `COc1cc([C@@H](C(=O)N2CCCC[C@H]2C(=O)OC2(C)CCCC2)C2CCCCC2)cc(OC)c1OC` [Compound C11, (S)-1-methylcyclopentyl-1-((S)-2-cyclohexyl-2-(3,4,5-trimethoxyphenyl)acetyl) piperidine-2-carboxylate], the “Ki(FKBP51)/Ki(FKBP52)” value at FKBP52 (compounds B01-C25) was “+++ (>500 +++)”. In addition, the Ki on FKBP51 (compounds B01-C25) lay in the range of 1 to 10 µM.

Take `COc1cc([C@@H](C(=O)N2CCCC[C@H]2C(=O)OC2CCOCC2)C2CCCCC2)cc(OC)c1OC` [Compound C12, (S)-tetrahydro-2H-pyran-4-yl-1-((S)-2-cyclohexyl-2-(3,4,5-trimethoxyphenyl)acetyl)piperidine-2-carboxylate]: the “Ki(FKBP51)/Ki(FKBP52)” value on FKBP52 (compounds B01-C25) is listed as “+++ (>500 +++)”. In addition, on FKBP51 (compounds B01-C25), the Ki was 1 to 10 µM.

As for `COc1cc([C@@H](C(=O)N2CCCC[C@H]2C(=O)OC2CCCC2)C2CCCCC2)cc(OC)c1OC` [Compound C13, (S)-cyclopentyl-1-((S)-2-cyclohexyl-2-(3,4,5-trimethoxyphenyl)acetyl)piperidine-2-carboxylate], at FKBP52 (compounds B01-C25), the “Ki(FKBP51)/Ki(FKBP52)” value is on record as “+++ (>500 +++)”. Also, the Ki at FKBP51 (compounds B01-C25) is 1 to 10 µM.

For the molecule `COc1cc([C@@H](C(=O)N2CCCC[C@H]2C(=O)OC2CC=CC2)C2CCCCC2)cc(OC)c1OC` [Compound C14, (S)-cyclopent-3-en-1-yl-1-((S)-2-cyclohexyl-2-(3,4,5-trimethoxyphenyl)acetyl) piperidine-2-carboxylate], the “Ki(FKBP51)/Ki(FKBP52)” value on FKBP52 (compounds B01-C25) is reported as “+++ (>500 +++)”. Further, the Ki on FKBP51 (compounds B01-C25) is 1 to 10 µM.

As for `COc1cc([C@@H](C(=O)N2CCCC[C@H]2C(=O)OC2CCCCCC2)C2CCCCC2)cc(OC)c1OC` [Compound C16, (S)-cycloheptyl-1-((S)-2-cyclohexyl-2-(3,4,5-trimethoxyphenyl)acetyl)piperidine-2-carboxylate], the “Ki(FKBP51)/Ki(FKBP52)” value at FKBP52 (compounds B01-C25) is on record as “++ (>50 ++)”. The inhibition constant Ki at FKBP51 (compounds B01-C25) lay within 10 to 50 µM.

In the case of `C=CCOC(=O)[C@@H]1CCCCN1C(=O)[C@H](c1cc(OC)c(OC)c(OC)c1)C1CCCCC1` [Compound C17, (S)-allyl-1-((S)-2-cyclohexyl-2-(3,4,5-trimethoxyphenyl)acetyl)piperidine-2-carboxylate], on FKBP52 (compounds B01-C25), the “Ki(FKBP51)/Ki(FKBP52)” value is listed as “++ (>50 ++)”. Further, the Ki at FKBP51 (compounds B01-C25) lay within 10 to 50 µM.

`COCCOC(=O)[C@@H]1CCCCN1C(=O)[C@H](c1cc(OC)c(OC)c(OC)c1)C1CCCCC1` [Compound C18, (S)-2-methoxyethyl-1-((S)-2-cyclohexyl-2-(3,4,5-trimethoxyphenyl)acetyl) piperidine-2-carboxylate]: the “Ki(FKBP51)/Ki(FKBP52)” value on FKBP52 (compounds B01-C25) was “++ (>50 ++)”. Further, the inhibitory constant (Ki) at FKBP51 (compounds B01-C25) was in the range of 1 to 10 µM.

Take `COc1cc([C@@H](C(=O)N2CCCC[C@H]2C(=O)OCCOCc2ccccc2)C2CCCCC2)cc(OC)c1OC` [Compound C19, (S)-2-(benzyloxy)ethyl-1-((S)-2-cyclohexyl-2-(3,4,5-trimethoxyphenyl)acetyl) piperidine-2-carboxylate]: on FKBP52 (compounds B01-C25), the “Ki(FKBP51)/Ki(FKBP52)” value was “++ (>50 ++)”. The Ki on FKBP51 (compounds B01-C25) is 1 to 10 µM.

Turning to `COc1cc([C@@H](C(=O)N2CCCC[C@H]2C(=O)OCCO)C2CCCCC2)cc(OC)c1OC` [Compound C20, (S)-2-hydroxyethyl-1-((S)-2-cyclohexyl-2-(3,4,5-trimethoxyphenyl)acetyl)piperidine-2-carboxylate], the “Ki(FKBP51)/Ki(FKBP52)” value at FKBP52 (compounds B01-C25) is “+++ (>500 +++)”. Further, the Ki at FKBP51 (compounds B01-C25) lay in the range of 1 to 10 µM.

Take `COc1cc([C@@H](C(=O)N2CCCC[C@H]2C(=O)OCCCOCc2ccccc2)C2CCCCC2)cc(OC)c1OC` [Compound C21, (S)-3-(benzyloxy)propyl-1-((S)-2-cyclohexyl-2-(3,4,5-trimethoxyphenyl)acetyl) piperidine-2-carboxylate]: the “Ki(FKBP51)/Ki(FKBP52)” value at FKBP52 (compounds B01-C25) is recorded as “++ (>50 ++)”. Further, the Ki on FKBP51 (compounds B01-C25) fell in the range of 1 to 10 µM.

With `COCCCCOC(=O)[C@@H]1CCCCN1C(=O)[C@H](c1cc(OC)c(OC)c(OC)c1)C1CCCCC1` [Compound C23, (S)-4-methoxybutyl-1-((S)-2-cyclohexyl-2-(3,4,5-trimethoxyphenyl)acetyl) piperidine-2-carboxylate], the “Ki(FKBP51)/Ki(FKBP52)” value on FKBP52 (compounds B01-C25) is reported as “+++ (>500 +++)”. Further, at FKBP51 (compounds B01-C25), the Ki lay within 1 to 10 µM.

As to `COc1cc([C@@H](C(=O)N2CCCC[C@H]2C(=O)O[C@H](C)COCc2ccccc2)C2CCCCC2)cc(OC)c1OC` [Compound C24], the “Ki(FKBP51)/Ki(FKBP52)” value on FKBP52 (compounds B01-C25) is listed as “+++ (>500 +++)”. Moreover, on FKBP51 (compounds B01-C25), the inhibitory constant (Ki) is 1 to 10 µM.

For the molecule `C=CC[C@H](C(=O)N1CCCC[C@H]1C(=O)O[C@H](CCc1ccc(OC)c(OC)c1)c1cccc(OCC(=O)O)c1)c1cc(OC)c(OC)c(OC)c1` [Reference A01, 2-(3-((R)-3-(3,4-Dimethoxyphenyl)-1-(((S)-1-((S)-2-(3,4,5-trimethoxyphenyl)pent-4-enoyl)piperidine-2-carbonyl)oxy)propyl)phenoxy)acetic acid], the “Ki(FKBP51)/Ki(FKBP52)” value at FKBP52 (FKBP52WT (400 nM) with F2 (20 nM), A series) was “not selective (<5 not selective)”. Further, the Ki at FKBP51 (FK1-domain of FKBP51WT (4.5 nM) with F4 (3 nM), A series) lay in the range of 10 to 50 µM.
